Reference: publication PMC8963105, “A Novel Modulator of the Renin–Angiotensin System, Benzoylaconitine, Attenuates Hypertension by Targeting ACE/ACE2 in Enhancing Vasodilation and Alleviating Vascular Inflammation” (Frontiers in Pharmacology, 2022)

Tests used:
total NO = total NO in serum of SHRs; type: in vivo, rat; conditions: oral 14 days, dose-dependent
From the text: (§1) All three MDAs (BAC, BMC, and BHC) were purchased from Nature-Standard Co., Ltd. (Shanghai, China) and their purities were all over 98%. The anti-hypertensive effects of MDAs were studied in both acute and chronic experiments. The 16-week-old SHRs were used in animal experiments, and each group had six rats. In the acute experiment, drug administration was via i.v. injection. For i.v. injection, the animals were randomly assigned into four groups: vehicle (0.1% DMSO–0.9% salt solution, n = 6), low-dose group (0.6 mg kg^−1 body weight, n = 6), medium-dose group (2 mg kg^−1 body weight, n = 6), and high-dose group (6 mg kg^−1 body weight, n = 6). The drug was administered using a venous catheter. […] Blood pressure was recorded in real time.
Total NO levels in serum obtained from SHRs treated with vehicle, BAC, or captopril for 14 days were quantified by using total nitric oxide assay kit (Beyotime, Shanghai, China) as described previously. The absorbance was measured using a microplate reader (Thermo Fisher Scientific) at 540 nm and calculated according to the standard curve. […]

[1] = tested on: spontaneously hypertension rats (SHRs); test: acute experiment: real-time blood pressure after i.v. injection in SHRs; type: in vivo, rat
Experimental: The SHRs were surgically implanted with a catheter via the left femoral artery, vein, and stomach after anesthetizing with 2% pentobarbital sodium (40 mg kg^−1 i.p.,). A pressure sensor was inserted into the terminal of the arterial catheter and connected to a PowerLab system (ADInstruments, New South Wales, Australia) for real-time blood pressure monitoring.
All three MDAs (BAC, BMC, and BHC) were purchased from Nature-Standard Co., Ltd. (Shanghai, China) and their purities were all over 98%. The anti-hypertensive effects of MDAs were studied in both acute and chronic experiments. The 16-week-old SHRs were used in animal experiments, and each group had six rats. In the acute experiment, drug administration was via i.v. injection. For i.v. injection, the animals were randomly assigned into four groups: vehicle (0.1% DMSO–0.9% salt solution, n = 6), low-dose group (0.6 mg kg^−1 body weight, n = 6), medium-dose group (2 mg kg^−1 body weight, n = 6), and high-dose group (6 mg kg^−1 body weight, n = 6). The drug was administered using a venous catheter. In chronic experiments, the animals were randomly assigned into five groups: vehicle (5% Tween 80–0.9% salt solution, n = 6), captopril group (5 mg kg^−1 body weight, n = 6), low-dose group (3 mg kg^−1 body weight, n = 6), medium-dose group (10 mg kg^−1 body weight, n = 6), and high-dose group (30 mg kg^−1 body weight, n = 6). Oral administration with drug or 5% Tween 80–0.9% salt solution was carried out once a day, and continued for 14 days. The drugs were dissolved in 0.1% DMSO–0.9% salt solution for intravenous injection and in 5% Tween 80–0.9% salt solution for oral administration. Blood pressure was recorded in real time.
Real-time blood pressure level was monitored after drug treatment in the acute and chronic experiments. All animals were surgically implanted with a catheter in the left femoral artery. After connection to the monitor, all animals were placed at room temperature of 25°C for 0.5–1 h and the average blood pressure value was calculated based on a real-time blood pressure curve (10 s of every 30 s).

HUVECs = test: CCK-8 cell viability (drug cytotoxicity) in HUVECs; type: cell-based, human; conditions: dose lower than 100 μM, 48 h
From the text: Human umbilical vein endothelial cells (HUVECs) were isolated from umbilical cords as previously described ([Jaffe et al., 1973]). They were purchased from ATCC (cat# CRL-1444, Manassas, VA, United States) and cultured in endothelial cell medium (ECM, ScienCell, Carlsbad, CA, United States) supplemented with 5% FBS, 1% endothelial cell growth supplement, and 1% antibiotics (Sigma, St. Louis, MO, United States). Cells harvested between the third and tenth passages were used in the experiments. Cells were cultured until they were ∼80% confluent. After pre-starving in a quiescing ECM supplemented with 1% FBS and 1% antibiotics for 24 h, the cells were treated using different concentrations of BAC (Control, DMSO, 25, 50, and 100 μM, dissolved in 0.1% DMSO–DMEM) with or without MG132, an inhibitor of proteasome, at 20 nM or 40 nM for 24 h. Then, cell samples were collected for Western blot analysis or immunofluorescence staining.
The potential of cells to maintain or recover viability after treatment with each agent was determined. Cell viability can be distinguished from the all-or-nothing states of life and death using a quantifiable index between 0 and 1 (or 0 and 100%). Cell viability was measured by a Cell Counting Kit-8 (CCK-8) Assay Kit (EnoGene, Nanjing, China). […] After 1 h of incubation, the absorbance was measured at 450 nm using a microplate reader (Thermo Fisher Scientific). […]

mice = tested on: mice; set-up: method as in Wada et al., 2005; conditions: ref Wada et al., 2005; cited from earlier work
TNF-α = test: serum TNF-α by ELISA in SHRs; type: in vivo, rat; conditions: oral 14 days
From the text: as §1
(§2) Blood samples were collected from the left femoral artery of rats at the end point, followed by centrifugation at 1,000 × g for 15 min at 4°C. […] The concentrations of circulating ACE, ACE2, Ang I, Ang II, Ang (1–7), TNF-α, and IL-6 in serum were measured using the ELISA kits [ACE, cat#xy-R2401c, X-Y Biotechnology, Shanghai, China; ACE2, cat#xy-ACE2-Ra, X-Y Biotechnology; Ang I, cat#xy-E12541, X-Y Biotechnology; Ang II, cat#xy-R1430c, X-Y Biotechnology; Ang (1–7), cat#xy-Ang1-7-Ra, X-Y Biotechnology; TNF-α, cat#GM1149, Servicebio, Shanghai, China; IL-6, cat#GM1154, Servicebio] according to the manufacturer’s instructions. […]

ACE2 = test: serum ACE2 by ELISA in SHRs after 14-day oral administration; type: in vivo, rat; conditions: oral 14 days
From the text: as §1, §2

Compound: CCN1CC2(COC)C(O)CC(OC)C34C5CC6(O)C(OC)C(O)C(O)(C5C6OC(=O)c5ccccc5)C(C(OC)C23)C14 (centres unmarked) [BAC, Benzoylaconitine]
- total NO level in serum (total NO): increase NO level
- anti-hypertensive effect (in words) ([1]; acute experiment, i.v. injection 0.6–6 mg kg^−1): observable anti-hypertensive effects
- duration of anti-hypertensive effect ([1]; i.v. injection, 0.6 mg kg^−1): at least 30 min
- lowering of SBP, DBP, and MAP ([1]; i.v. injection, lowest dose 0.6 mg kg^−1, 1–5 min): more than 20 mmHg
- cell viability (toxicity on HUVECs) (HUVECs): no significant effect
- oral median lethal dose (LD50) (mice): 1,500 mg kg^−1
- level of TNF-α in serum (TNF-α): reduced
- level of ACE2 in blood (ACE2): did not change
